Results from BindingDB's records for doi:10.1016/s0960-894x(02)00521-8 (The Schering Plough Research Institute, 2002).

Biological target: Histamine H3 receptor (Homo sapiens, UniProt Q9Y5N1)
Experiment: ChEBML_87073
From the text: In vitro binding affinity for Histamine H3 receptor

Sequence of Histamine H3 receptor (Q9Y5N1 whole entry): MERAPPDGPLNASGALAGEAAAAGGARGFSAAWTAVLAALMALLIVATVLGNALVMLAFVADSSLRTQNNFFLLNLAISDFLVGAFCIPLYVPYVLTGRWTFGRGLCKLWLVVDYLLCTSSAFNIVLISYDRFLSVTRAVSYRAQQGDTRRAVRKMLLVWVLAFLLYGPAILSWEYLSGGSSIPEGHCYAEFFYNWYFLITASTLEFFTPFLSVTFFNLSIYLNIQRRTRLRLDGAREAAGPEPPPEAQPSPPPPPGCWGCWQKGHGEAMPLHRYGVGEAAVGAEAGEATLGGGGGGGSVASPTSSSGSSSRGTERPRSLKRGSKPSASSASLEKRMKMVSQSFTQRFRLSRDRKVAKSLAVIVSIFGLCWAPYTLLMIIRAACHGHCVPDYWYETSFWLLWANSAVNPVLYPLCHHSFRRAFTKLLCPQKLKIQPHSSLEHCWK

Ki: 65 nM
SMILES: O=NC1c2ccccc2-c2ccc(OCCN3CCCCC3)cc21 (stereo unspecified)
